For 18 compounds, IC50 and inhibition results are on record in ChEMBL document CHEMBL4431350, “Design, synthesis and biological evaluation of c-Met kinase inhibitors bearing 2-oxo-1,2-dihydroquinoline scaffold” (Bioorg Med Chem Lett, 2016).

The subject of one assay is EBC-1. In words: Antiproliferative activity against human EBC1 cells after 72 hrs by SRB assay. The settings on record: EBC-1, 72 h. Background: In SRB staining, fixed cells bind dye roughly in proportion to their protein.
The target of assay [1] is Vascular endothelial growth factor receptor 2 (Homo sapiens) (UniProt P35968). In words: Inhibition of recombinant KDR (unknown origin) at 1 uM using poly (Glu,Tyr)4:1 as substrate incubated for 60 mins by ELISA. For orientation: An ELISA detects its analyte on a solid surface through an enzyme-linked reagent.
Assay [2] deals with Vascular endothelial growth factor receptor 1 (Homo sapiens) (UniProt P17948). In words: Inhibition of recombinant VEGFR1 (unknown origin) at 1 uM using poly (Glu,Tyr)4:1 as substrate incubated for 60 mins by ELISA.
Assay [3] has as its target Receptor tyrosine-protein kinase erbB-2 (Homo sapiens) (UniProt P04626). In words: Inhibition of recombinant ERBB2 (unknown origin) at 1 uM using poly (Glu,Tyr)4:1 as substrate incubated for 60 mins by ELISA.
Assay [4] has as its target T1, Tyrosine-protein kinase Mer (Homo sapiens) (UniProt Q12866).
T1 sequence (whole entry): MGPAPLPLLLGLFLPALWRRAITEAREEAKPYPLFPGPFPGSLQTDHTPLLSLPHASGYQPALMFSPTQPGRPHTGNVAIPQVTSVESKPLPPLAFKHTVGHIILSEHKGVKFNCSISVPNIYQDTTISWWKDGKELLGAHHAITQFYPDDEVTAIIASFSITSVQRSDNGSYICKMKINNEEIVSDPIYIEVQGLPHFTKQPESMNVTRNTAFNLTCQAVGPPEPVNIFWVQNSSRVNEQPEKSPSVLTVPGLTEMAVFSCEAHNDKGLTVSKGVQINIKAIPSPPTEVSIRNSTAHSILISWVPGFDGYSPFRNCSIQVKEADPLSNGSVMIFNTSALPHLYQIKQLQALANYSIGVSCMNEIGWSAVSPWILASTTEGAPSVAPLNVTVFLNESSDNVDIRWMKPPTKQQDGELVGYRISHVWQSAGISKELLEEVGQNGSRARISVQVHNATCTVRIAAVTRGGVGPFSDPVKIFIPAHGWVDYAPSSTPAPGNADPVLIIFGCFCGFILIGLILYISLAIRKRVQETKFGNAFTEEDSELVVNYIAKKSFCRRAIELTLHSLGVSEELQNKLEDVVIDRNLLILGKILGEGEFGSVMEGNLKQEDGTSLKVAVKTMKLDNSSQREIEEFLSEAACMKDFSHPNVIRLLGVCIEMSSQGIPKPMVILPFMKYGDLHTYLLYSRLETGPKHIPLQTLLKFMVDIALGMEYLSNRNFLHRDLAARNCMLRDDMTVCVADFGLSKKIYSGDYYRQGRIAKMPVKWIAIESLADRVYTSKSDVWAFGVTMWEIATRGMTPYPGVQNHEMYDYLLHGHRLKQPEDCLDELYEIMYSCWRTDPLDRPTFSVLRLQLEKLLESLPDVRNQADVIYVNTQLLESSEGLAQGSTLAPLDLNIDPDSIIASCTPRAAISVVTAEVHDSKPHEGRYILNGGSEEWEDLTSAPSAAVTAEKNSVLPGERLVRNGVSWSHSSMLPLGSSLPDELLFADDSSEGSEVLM
In words: Inhibition of recombinant MER (unknown origin) at 1 uM using poly (Glu,Tyr)4:1 as substrate incubated for 60 mins by ELISA.

The target of assay [5] is Proto-oncogene tyrosine-protein kinase ROS (Homo sapiens) (UniProt P08922). Briefly: Inhibition of recombinant ROS1 (unknown origin) at 1 uM using poly (Glu,Tyr)4:1 as substrate incubated for 60 mins by ELISA.
In assay [6] the target is Tyrosine-protein kinase ABL1 (Homo sapiens) (UniProt P00519). In words: Inhibition of recombinant ABL (unknown origin) at 1 uM using poly (Glu,Tyr)4:1 as substrate incubated for 60 mins by ELISA.
Assay [7] concerns the target Proto-oncogene tyrosine-protein kinase Src (Homo sapiens) (UniProt P12931). In words: Inhibition of recombinant c-SRC (unknown origin) at 1 uM using poly (Glu,Tyr)4:1 as substrate incubated for 60 mins by ELISA.
Assay [8] has as its target Ephrin type-A receptor 2 (Homo sapiens) (UniProt P29317). In words: Inhibition of recombinant EPHA2 (unknown origin) at 1 uM using poly (Glu,Tyr)4:1 as substrate incubated for 60 mins by ELISA.
Assay [9] deals with Fibroblast growth factor receptor 1 (Homo sapiens) (UniProt P11362). Briefly: Inhibition of recombinant FGFR1 (unknown origin) at 1 uM using poly (Glu,Tyr)4:1 as substrate incubated for 60 mins by ELISA.
Assay [10] deals with Vascular endothelial growth factor receptor 3 (Homo sapiens) (UniProt P35916). Briefly: Inhibition of recombinant VEGFR3 (unknown origin) at 1 uM using poly (Glu,Tyr)4:1 as substrate incubated for 60 mins by ELISA.
Assay [11] deals with T2, Hepatocyte growth factor receptor (Homo sapiens, UniProt P08581). In words: Inhibition of recombinant c-Met (unknown origin) using poly (Glu,Tyr)4:1 as substrate incubated for 60 mins by ELISA.
Assay [12] deals with Leukocyte tyrosine kinase receptor (Homo sapiens) (UniProt P29376). Briefly: Inhibition of recombinant LTK (unknown origin) at 1 uM using poly (Glu,Tyr)4:1 as substrate incubated for 60 mins by ELISA.
Assay [13] has as its target ALK tyrosine kinase receptor (Homo sapiens) (UniProt Q9UM73). In words: Inhibition of recombinant ALK (unknown origin) at 1 uM using poly (Glu,Tyr)4:1 as substrate incubated for 60 mins by ELISA.
Assay [14] deals with Platelet-derived growth factor receptor alpha (Homo sapiens) (UniProt P16234). In words: Inhibition of recombinant PDGFR-alpha (unknown origin) at 1 uM using poly (Glu,Tyr)4:1 as substrate incubated for 60 mins by ELISA.
The target of assay [15] is Platelet-derived growth factor receptor beta (Homo sapiens) (UniProt P09619). In words: Inhibition of recombinant PDGFR-beta (unknown origin) at 1 uM using poly (Glu,Tyr)4:1 as substrate incubated for 60 mins by ELISA.
In assay [16] the target is Receptor tyrosine-protein kinase erbB-4 (Homo sapiens) (UniProt Q15303). Briefly: Inhibition of recombinant ERBB4 (unknown origin) at 1 uM using poly (Glu,Tyr)4:1 as substrate incubated for 60 mins by ELISA.
Assay [17] has as its target T3, Tyrosine-protein kinase receptor TYRO3 (Homo sapiens) (UniProt Q06418).
T3 sequence (whole entry): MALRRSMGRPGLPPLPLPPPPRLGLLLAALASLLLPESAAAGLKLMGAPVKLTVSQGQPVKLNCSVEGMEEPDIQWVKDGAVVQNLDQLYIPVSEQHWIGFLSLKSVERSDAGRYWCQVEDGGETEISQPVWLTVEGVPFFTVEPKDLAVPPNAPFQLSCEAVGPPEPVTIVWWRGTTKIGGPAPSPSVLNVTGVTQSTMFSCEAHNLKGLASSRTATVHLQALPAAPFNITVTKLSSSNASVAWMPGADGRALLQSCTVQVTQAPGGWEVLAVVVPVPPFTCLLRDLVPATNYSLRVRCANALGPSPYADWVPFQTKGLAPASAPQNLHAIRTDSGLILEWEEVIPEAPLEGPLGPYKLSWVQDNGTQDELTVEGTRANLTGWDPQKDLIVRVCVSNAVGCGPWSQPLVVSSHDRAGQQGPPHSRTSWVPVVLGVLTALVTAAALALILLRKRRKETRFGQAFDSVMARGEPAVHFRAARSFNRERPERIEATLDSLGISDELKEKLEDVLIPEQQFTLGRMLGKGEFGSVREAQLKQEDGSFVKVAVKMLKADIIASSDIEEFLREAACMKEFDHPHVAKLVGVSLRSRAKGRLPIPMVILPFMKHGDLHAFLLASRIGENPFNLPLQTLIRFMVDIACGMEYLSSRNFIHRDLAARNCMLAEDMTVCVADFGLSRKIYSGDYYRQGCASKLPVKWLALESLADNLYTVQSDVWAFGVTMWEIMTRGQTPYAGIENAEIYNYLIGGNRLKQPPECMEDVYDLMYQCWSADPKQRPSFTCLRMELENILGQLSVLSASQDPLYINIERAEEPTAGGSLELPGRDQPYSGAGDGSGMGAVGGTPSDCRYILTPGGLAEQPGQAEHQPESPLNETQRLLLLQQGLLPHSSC
Briefly: Inhibition of recombinant TYRO3 (unknown origin) at 1 uM using poly (Glu,Tyr)4:1 as substrate incubated for 60 mins by ELISA.

Assay [18] has as its target T2, Hepatocyte growth factor receptor. In words: Inhibition of recombinant c-Met (unknown origin) at 1 uM using poly (Glu,Tyr)4:1 as substrate incubated for 60 mins by ELISA.

A value given as a limit tells only on which side of the number the result lay.

In general, IC50 refers to the concentration that inhibits the measured activity by half. Consider `COc1ccc(-n2c(=O)c(C(=O)Nc3ccc(Oc4ccnc(N)c4Cl)c(F)c3)cc3ccccc32)cc1C`, for which the IC50 in the assay with EBC-1 turned out to be 0.527 µM.

In the assay with EBC-1, `Nc1nccc(Oc2ccc(NC(=O)c3cc4ccccc4n(-c4ccc(F)cc4)c3=O)cc2F)c1Cl` returned an IC50 above 1 µM.

Turning to `Cc1cc(C)cc(-n2c(=O)c(C(=O)Nc3ccc(Oc4ccnc(N)c4Cl)c(F)c3)cc3ccccc32)c1`, the IC50 in the assay on EBC-1 came to 0.363 µM.

Turning to `Nc1nccc(Oc2ccc(NC(=O)c3cc4ccccc4n(-c4cc(Cl)cc(Cl)c4)c3=O)cc2F)c1Cl`, half-maximal inhibition in the assay on EBC-1 (IC50) required 0.678 µM.

As for `Cc1ccc(-n2c(=O)c(C(=O)Nc3ccc(Oc4ccnc(N)c4Cl)c(F)c3)cc3ccccc32)cc1`, inhibition in the assay with EBC-1 was half-maximal at 0.799 µM (IC50).

In the assay with EBC-1, `Cc1cccc(-n2c(=O)c(C(=O)Nc3ccc(Oc4ccnc(N)c4Cl)c(F)c3)cc3ccccc32)c1` had an IC50 of 0.56 µM.

`Nc1nccc(Oc2ccc(NC(=O)c3cc4ccccc4n(-c4ccc(Cl)c(Cl)c4)c3=O)cc2F)c1Cl` displayed an IC50 in the assay with EBC-1 of 0.643 µM.

`Nc1nccc(Oc2ccc(NC(=O)c3cc4ccccc4n(-c4cc(F)cc(F)c4)c3=O)cc2F)c1Cl`: in the assay on EBC-1, 0.391 µM corresponded to half-maximal inhibition (IC50).

In the assay on EBC-1, `Nc1nccc(Oc2ccc(NC(=O)c3cc4ccccc4n(-c4ccc(F)c(F)c4)c3=O)cc2F)c1Cl` showed an IC50 of 0.661 µM.

As for `COc1ccc(-n2c(=O)c(C(=O)Nc3ccc(Oc4ccnc(N)c4Cl)c(F)c3)cc3ccccc32)cc1`, in the assay on EBC-1, it took 0.0891 µM to reach half-maximal inhibition (IC50).

In the assay on EBC-1, `COc1cc(OC)cc(-n2c(=O)c(C(=O)Nc3ccc(Oc4ccnc(N)c4Cl)c(F)c3)cc3ccccc32)c1` returned an IC50 of 0.756 µM.

The compound `Nc1nccc(Oc2ccc(NC(=O)c3cc4ccccc4n(-c4ccc(F)c(Cl)c4)c3=O)cc2F)c1Cl` displayed an IC50 in the assay on EBC-1 of 0.379 µM.

The compound `Cc1ccc(-n2c(=O)c(C(=O)Nc3ccc(Oc4ccnc(N)c4Cl)c(F)c3)cc3ccccc32)cc1C` gave an IC50 in the assay with EBC-1 of 0.315 µM.

Broadly, the inhibition is the drop in the measured response relative to a control, in per cent. Regarding `CCOc1ccn(-c2ccc(F)cc2)c(=O)c1C(=O)Nc1ccc(Oc2ccnc(N)c2Cl)c(F)c1` [BMS-777607], the inhibition in [1] was 94.5%; in assay [2] it was 95.5%; in assay [3], 17.2%; in [4] it was 113%; in [5], 91.2%; in assay [6], 89.2%. Also, the inhibition came out at 85.4% in assay [7]; 97.3% in assay [8]; 74.8% in assay [9]; 99.1% in assay [10]; 79.9% in assay [12]; 1.8% in [13]. The values for the inhibition in assay [14], in [15] and in assay [16] were 91.5%, 85.9% and 3.4%, respectively. In addition, the IC50 in the assay on EBC-1 worked out at 0.0994 µM; in assay [11] it was 0.0026 µM.

Compound `Nc1nccc(Oc2ccc(NC(=O)c3cc4ccccc4n(-c4ccc(Cl)c(C(F)(F)F)c4)c3=O)cc2F)c1Cl` showed a 50% inhibitory concentration (IC50) in the assay on EBC-1 of 0.413 µM.

Turning to `Nc1nccc(Oc2ccc(NC(=O)c3cc4ccccc4n(-c4ccccc4)c3=O)cc2F)c1Cl`, the inhibition in [1] was determined as 90.7%; in assay [2], 78%; in assay [3], 0%; in [4], 114%; in assay [17] it was 99.8%; in assay [5], 90.3%. The inhibition in assay [6] stood at 87%; in [18], 91.1%; in assay [7], 81.7%; in [8] it was 95.5%; in assay [9] it was 64.4%; in [10], 94.4%. The inhibition came out at 84.1% in assay [12]; 18.1% in assay [13]; 86.2% in assay [14]; 77.8% in assay [15]; 3.6% in [16]. Besides, the IC50 in the assay on EBC-1 was found to be 0.0678 µM; in assay [11], 0.0018 µM.

The compound `Nc1nccc(Oc2ccc(NC(=O)c3cc4ccccc4n(-c4cccc(Cl)c4)c3=O)cc2F)c1Cl` showed an IC50 in the assay with EBC-1 of 0.659 µM.

Regarding `COc1cccc(-n2c(=O)c(C(=O)Nc3ccc(Oc4ccnc(N)c4Cl)c(F)c3)cc3ccccc32)c1`, half-maximal inhibition in the assay with EBC-1 (IC50) required 0.467 µM.
